Converted amounts (≈) assume the structure as drawn.
Columns and labels:
Assay type in all cases: functional
[1] = system: Staphylococcus aureus; assay: Antimicrobial activity against methicillin-resistant Staphylococcus aureus 332/08 after 18 hrs by disc-diffusion method; conditions: 332/08, 18 h
[2] = system: Staphylococcus aureus; assay: Antimicrobial activity against methicillin-resistant Staphylococcus aureus 335/08 after 18 hrs by disc-diffusion method; conditions: 335/08, 18 h
[3] = system: Staphylococcus aureus; assay: Antimicrobial activity against methicillin-susceptible Staphylococcus aureus 339/08 after 18 hrs by disc-diffusion method; conditions: 339/08, 18 h
[4] = system: Staphylococcus epidermidis; assay: Antimicrobial activity against methicillin-resistant Staphylococcus epidermidis 318/08 after 18 hrs by disc-diffusion method; conditions: 318/08, 18 h
[5] = system: Staphylococcus epidermidis; assay: Antimicrobial activity against methicillin-resistant Staphylococcus epidermidis 292/08 after 18 hrs by disc-diffusion method; conditions: 292/08, 18 h
[6] = system: Staphylococcus aureus; assay: Antimicrobial activity against methicillin-susceptible Staphylococcus aureus 326/08 after 18 hrs by disc-diffusion method; conditions: 326/08, 18 h
[7] = system: Staphylococcus aureus; assay: Antimicrobial activity against methicillin-susceptible Staphylococcus aureus 322/08 after 18 hrs by disc-diffusion method; conditions: 322/08, 18 h
[8] = system: Staphylococcus aureus; assay: Antimicrobial activity against methicillin-resistant Staphylococcus aureus 334/08 after 18 hrs by disc-diffusion method; conditions: 334/08, 18 h
[9] = system: Staphylococcus aureus; assay: Antimicrobial activity against methicillin-susceptible Staphylococcus aureus 320/08 after 18 hrs by disc-diffusion method; conditions: 320/08, 18 h
[10] = system: Staphylococcus aureus; assay: Antimicrobial activity against methicillin-susceptible Staphylococcus aureus 328/08 after 18 hrs by disc-diffusion method; conditions: 328/08, 18 h
[11] = system: Staphylococcus aureus; assay: Antimicrobial activity against methicillin-resistant Staphylococcus aureus 309/08 after 18 hrs by disc-diffusion method; conditions: 309/08, 18 h
[12] = system: Staphylococcus epidermidis; assay: Antimicrobial activity against methicillin-resistant Staphylococcus epidermidis 311/08 after 18 hrs by disc-diffusion method; conditions: 311/08, 18 h
[13] = system: Staphylococcus aureus; assay: Antimicrobial activity against methicillin-resistant Staphylococcus aureus 329/08 after 18 hrs by disc-diffusion method; conditions: 329/08, 18 h
[14] = system: Staphylococcus epidermidis; assay: Antimicrobial activity against methicillin-resistant Staphylococcus epidermidis 291/08 after 18 hrs by disc-diffusion method; conditions: 291/08, 18 h
[15] = system: Staphylococcus epidermidis; assay: Antimicrobial activity against methicillin-resistant Staphylococcus epidermidis 317/08 after 18 hrs by disc-diffusion method; conditions: 317/08, 18 h
[16] = system: Staphylococcus aureus; assay: Antimicrobial activity against methicillin-resistant Staphylococcus aureus 330/08 after 18 hrs by disc-diffusion method; conditions: 330/08, 18 h
[17] = system: Staphylococcus aureus; assay: Antimicrobial activity against methicillin-resistant Staphylococcus aureus 333/08 after 18 hrs by disc-diffusion method; conditions: 333/08, 18 h
[18] = system: Staphylococcus aureus; assay: Antimicrobial activity against methicillin-susceptible Staphylococcus aureus 321/08 after 18 hrs by disc-diffusion method; conditions: 321/08, 18 h
[19] = system: Staphylococcus epidermidis; assay: Antimicrobial activity against methicillin-resistant Staphylococcus epidermidis 315/08 after 18 hrs by disc-diffusion method; conditions: 315/08, 18 h
[20] = system: Staphylococcus aureus; assay: Antimicrobial activity against methicillin-susceptible Staphylococcus aureus 319/08 after 18 hrs by disc-diffusion method; conditions: 319/08, 18 h
[21] = system: Staphylococcus epidermidis; assay: Antimicrobial activity against methicillin-resistant Staphylococcus epidermidis 316/08 after 18 hrs by disc-diffusion method; conditions: 316/08, 18 h
[22] = system: Staphylococcus aureus; assay: Antimicrobial activity against methicillin-susceptible Staphylococcus aureus 338/08 after 18 hrs by disc-diffusion method; conditions: 338/08, 18 h
[23] = system: Staphylococcus epidermidis; assay: Antimicrobial activity against methicillin-resistant Staphylococcus epidermidis 290/08 after 18 hrs by disc-diffusion method; conditions: 290/08, 18 h
[24] = system: Staphylococcus aureus; assay: Antimicrobial activity against methicillin-resistant Staphylococcus aureus 331/08 after 18 hrs by disc-diffusion method; conditions: 331/08, 18 h
[25] = system: Staphylococcus epidermidis; assay: Antimicrobial activity against methicillin-resistant Staphylococcus epidermidis 289/08 after 18 hrs by disc-diffusion method; conditions: 289/08, 18 h
[26] = system: Staphylococcus aureus; assay: Antimicrobial activity against methicillin-resistant Staphylococcus aureus 308/08 after 18 hrs by disc-diffusion method; conditions: 308/08, 18 h
[27] = system: Staphylococcus aureus; assay: Antimicrobial activity against methicillin-resistant Staphylococcus aureus 307/08 after 18 hrs by disc-diffusion method; conditions: 307/08, 18 h
[28] = system: Staphylococcus aureus; assay: Antimicrobial activity against methicillin-susceptible Staphylococcus aureus 324/08 after 18 hrs by disc-diffusion method; conditions: 324/08, 18 h
[29] = system: Staphylococcus aureus; assay: Antimicrobial activity against methicillin-susceptible Staphylococcus aureus 327/08 after 18 hrs by disc-diffusion method; conditions: 327/08, 18 h
[30] = system: Staphylococcus epidermidis; assay: Antimicrobial activity against methicillin-resistant Staphylococcus epidermidis 293/08 after 18 hrs by disc-diffusion method; conditions: 293/08, 18 h

| Structure (SMILES) | MIC [1] [µM] | MIC [2] [µM] | MIC [3] [µM] | MIC [4] [µM] | MIC [5] [µM] | MIC [6] [µM] | MIC [7] [µM] | MIC [8] [µM] | MIC [9] [µM] | MIC [10] [µM] | MIC [11] [µM] | MIC [12] [µM] | MIC [13] [µM] | MIC [14] [µM] | MIC [15] [µM] | MIC [16] [µM] | MIC [17] [µM] | MIC [18] [µM] | MIC [19] [µM] | MIC [20] [µM] | further results |
| --- | --- | --- | --- | --- | --- | --- | --- | --- | --- | --- | --- | --- | --- | --- | --- | --- | --- | --- | --- | --- | --- |
| CC[C@@]1([C@@H]2O[C@@H]([C@H]3O[C@@](O)(CO)[C@H](C)C[C@@H]3C)C[C@@H]2C)CC[C@H]([C@]2(C)CC[C@]3(C[C@H](O)[C@@H](C)[C@@H]([C@@H](C)[C@@H](OC)[C@H](C)C(=O)O)O3)O2)O1 [MONENSIN] | 1.49 (≈ 1 µg/mL) | 1.49 (≈ 1 µg/mL) | 5.96 (≈ 4 µg/mL) | 5.96 (≈ 4 µg/mL) | 2.98 (≈ 2 µg/mL) | 2.98 (≈ 2 µg/mL) | 2.98 (≈ 2 µg/mL) | 1.49 (≈ 1 µg/mL) | 2.98 (≈ 2 µg/mL) | 2.98 (≈ 2 µg/mL) | 2.98 (≈ 2 µg/mL) | 1.49 (≈ 1 µg/mL) | 2.98 (≈ 2 µg/mL) | 2.98 (≈ 2 µg/mL) | 1.49 (≈ 1 µg/mL) | 1.49 (≈ 1 µg/mL) | 1.49 (≈ 1 µg/mL) | 2.98 (≈ 2 µg/mL) | 1.49 (≈ 1 µg/mL) | 2.98 (≈ 2 µg/mL) | MIC [21]: 1.49 µM (≈ 1 µg/mL); MIC [22]: 2.98 µM (≈ 2 µg/mL); MIC [23]: 2.98 µM (≈ 2 µg/mL); MIC [24]: 1.49 µM (≈ 1 µg/mL); MIC [25]: 2.98 µM (≈ 2 µg/mL); MIC [26]: 2.98 µM (≈ 2 µg/mL); MIC [27]: 2.98 µM (≈ 2 µg/mL); MIC [28]: 1.49 µM (≈ 1 µg/mL); MIC [29]: 2.98 µM (≈ 2 µg/mL); MIC [30]: 1.49 µM (≈ 1 µg/mL) |
| CC[C@@]1([C@H]2O[C@@H]([C@H]3O[C@@](O)(CO)[C@H](C)C[C@@H]3C)C[C@@H]2C)CC[C@@H]([C@]2(C)CC[C@]3(C[C@H](O)[C@@H](C)[C@@H]([C@@H](C)[C@@H](OC)[C@H](C)C(=O)Nc4ccccc4)O3)O2)O1 | 8.37 (≈ 6.24 µg/mL) | 8.37 (≈ 6.24 µg/mL) | 33.5 (≈ 25 µg/mL) | 33.5 (≈ 25 µg/mL) | 16.8 (≈ 12.5 µg/mL) | 8.37 (≈ 6.24 µg/mL) | 16.8 (≈ 12.5 µg/mL) | 8.37 (≈ 6.24 µg/mL) | 16.8 (≈ 12.5 µg/mL) | 33.5 (≈ 25 µg/mL) | 8.37 (≈ 6.24 µg/mL) | 8.37 (≈ 6.24 µg/mL) | 8.37 (≈ 6.24 µg/mL) | 8.37 (≈ 6.24 µg/mL) | 8.37 (≈ 6.24 µg/mL) | 8.37 (≈ 6.24 µg/mL) | 8.37 (≈ 6.24 µg/mL) | 16.8 (≈ 12.5 µg/mL) | 8.37 (≈ 6.24 µg/mL) | 8.37 (≈ 6.24 µg/mL) | MIC [21]: 8.37 µM (≈ 6.24 µg/mL); MIC [22]: 8.37 µM (≈ 6.24 µg/mL); MIC [23]: 16.8 µM (≈ 12.5 µg/mL); MIC [24]: 8.37 µM (≈ 6.24 µg/mL); MIC [25]: 8.37 µM (≈ 6.24 µg/mL); MIC [26]: 8.37 µM (≈ 6.24 µg/mL); MIC [27]: 8.37 µM (≈ 6.24 µg/mL); MIC [28]: 8.37 µM (≈ 6.24 µg/mL); MIC [29]: 8.37 µM (≈ 6.24 µg/mL); MIC [30]: 8.37 µM (≈ 6.24 µg/mL) |

— ChEMBL document CHEMBL1240437, “Structural characterization and antibacterial activity against clinical isolates of Staphylococcus of N-phenylamide of monensin A and its 1:1 complexes with monovalent cations” (2010)
